Results: publication PMC3117839, “Efficacy Study of Novel Diamidine Compounds in a Trypanosoma evansi Goat Model” (PLoS ONE, 2011)
“Also recorded” adds a separate entry of the source. Read-outs that look alike come from different tables or passages of the source.

Legend:
[1] = Plasma drug levels and pharmacokinetic parameters in T. evansi infected goats (HPLC/MS-MS); format: in vivo, goat
Experimental: In addition, blood samples were taken shortly before each compound injection was applied, to determine the trough levels. All samples were centrifuged at 3000 g for ten minutes. Subsequently, the plasma was removed, placed into sterile polypropylene cryotubes and stored away from light at −80°C. Mass spectrometry analysis was performed on all plasma samples using 25 µl aliquots. Calibrators were prepared separately for each analyte. Stock solutions of diminazene, DB 75, DB 867 and DB1192 were prepared in water. Curves were then prepared and analysed in duplicate, at both the beginning and the end of the analytical run. Concentrations of diminazene, DB 75, DB 867 and DB 1192 were determined by Liquid Chromatography/Triple Quadrupole Mass Spectrometry (HPLC/MS-MS). The pharmacokinetic parameters were determined using Microsoft® Excel software, with a functional set of add-ins applied, together with a graphical programme (GraphPad Prism 5, GraphPad Software Inc, USA). The compound plasma levels can be seen in Figure 1 for a) the standard drug, diminazene, b) DB 1192, c) DB 75 and d) DB 867. The plasma samples taken were analysed by HPLC/MS-MS to determine the drug concentrations (in ng/ml). From these values, the averages from the experimental goats in each group were calculated and drug concentration versus time curves were plotted with a line of best fit applied, corresponding to either the high or low compound dose tested.

T. evansi [2] = experiment: Curative efficacy in T. evansi experimentally infected goats (five month follow up, overall outcome); format: in vivo, Trypanosoma evansi (Canaries (Rubio) strain) in goats
Experimental: Various diagnostic tests were used to evaluate the curative efficacy of the compounds, over a five month follow up period. The haematocrit centrifugation technique, was utilised as the standard parasitological test. The serological CATT/T. evansi test was performed to determine the presence or absence of antibodies. As a validating molecular based technique, a mini-exon 18S ribosomal PCR method designed for the detection of parasite DNA was also applied.
Fresh camel blood (400 µl) was collected from the jugular vein of a camel and 200 µl volumes inoculated (i.p.) into two mice. Once a parasitaemia had established, blood was collected via cardiac puncture and mixed with phosphate buffered saline with glucose (PSG) to provide the T. evansi suspension used for experimental goat infection. Thereafter, all 25 goats were experimentally infected intravenously (i.v.), with 10^6 parasites/goat.
Goats were divided into 8 groups, where group 1 contained four goats whilst group's 2 to 8 each contained three goats. […] All test compounds were administered intra-muscularly with four applications, on days 32, 34, 36 and 38 post-infection. Thereafter, follow up diagnostic methods were carried out for five months post treatment.

T. evansi [3] = tested on: T. evansi; set-up: method as in PMID 20149544; settings: cited from earlier work; for in vitro IC50: 72 hour assay against T. evansi; for estimated MIC (minimal inhibitory concentration): estimated at least four times the IC50
[4] = 1.25 mg/kg x4, 72 hours after final injection
[5] = 2.5 mg/kg x4, 72 hours after final injection
[6] = 2.5 mg/kg x4, 192 hours after final injection
[7] = goat plasma, four applications of 1.25 mg/kg i.m., average plasma levels
[8] = goat plasma, four applications of 2.5 mg/kg i.m., average plasma levels
[9] = 1.25 mg/kg i.m. x4, five month follow up
[10] = 2.5 mg/kg i.m. x4, five month follow up

Row | Compound | in vitro IC50 (T. evansi [3]) [ng/mL] | estimated MIC (minimal inhibitory concentration) (T. evansi [3]) | concentration in goat plasma [1, 4] | concentration in goat plasma [1, 5] | concentration in goat plasma [1, 6] | AUC [1, 7] | Cmax [1, 7] [ng/mL] | MRT [1, 7] [h] | T1/2 [1, 7] [h] | AUC [1, 8] | Cmax [1, 8] [ng/mL] | MRT [1, 8] [h] | T1/2 [1, 8] [h] | curative efficacy (T. evansi [2]; [9]) | curative efficacy (T. evansi [2]; [10]) | further results
1 | N=C(N)c1ccc(/N=N/Nc2ccc(C(=N)N)cc2)cc1 [Diminazene, Diminazene aceturate, reference compound] | 12.5 | 50 ng/mL |  |  |  |  |  |  |  |  |  |  |  |  |  | half-life ([1]; Canarian, im, goat plasma, four applications of 5 mg/kg i.m., average plasma levels): 59.1 h; AUC ([1]; Canarian, im, goat plasma, four applications of 5 mg/kg i.m., average plasma levels, read-out: AUC): 194 µg·h/mL; Cmax ([1]; Canarian, im, goat plasma, four applications of 5 mg/kg i.m., average plasma levels, read-out: Cmax): ≥ 8640 ng/mL; MRT ([1]; Canarian, im, goat plasma, four applications of 5 mg/kg i.m., average plasma levels, read-out: MRT): 70.7 h; concentration at 72 h ([1]; goat, plasma, intramuscular, 5 mg/kg x4, 72 hours after the end of treatment): 1110 ng/mL; concentration at 192 h ([1]; goat, plasma, intramuscular, 5 mg/kg x4, 192 hours after final injection): 568 ng/mL; curative efficacy (T. evansi [2]; 5 mg/kg i.m. x4, five month follow up): Complete curative efficacy
2 | N=C(N)c1ccc(-c2ccc(-c3ccc(C(=N)N)cc3)o2)cc1 [DB 75] | 2.3 | 9.2 ng/mL | 2223 ng/mL | 1923 ng/mL | above 1500 ng/ml | 394305 | ≥3115 | 89.5 | 279.3 | 358215 | ≥2530 | 93.4 | 473.7 | Complete cure; also recorded: complete curative efficacy | Complete curative efficacy | concentration in goat plasma ([1]; 1.25 mg/kg x4, 192 hours after final injection): above 1500 ng/ml
3 | N=C(N)c1ccc(-c2ccc(-c3ccc(C(=N)N)nc3)o2)cc1 [DB 867] | 1.7 | 6.8 ng/mL | above 1850 ng/ml | above 1850 ng/ml |  | 381604 | ≥3663 | 87.9 | 202.5 | 360895 | ≥3310 | 90.0 | 221.4 | a relapse was seen during the final month of the follow up period | Complete curative efficacy; also recorded: cured; also recorded: curative efficacy was seen | time to relapse post treatment (T. evansi [2]; 1.25 mg/kg i.m. x4): 4.5 months
4 | Cc1cc(C(=N)N)ccc1-c1cc2cc(C(=N)N)ccc2[nH]1 [DB 1192] | 10.5 | around 40 ng/ml | 18 ng/mL | 32 ng/mL | 10 ng/mL | 4809 | ≥836 | 52.3 | 37.0 | 9861 | ≥1563 | 38.4 | 30.5 | incapable of curing goats; also recorded: not effective | incapable of curing goats; also recorded: not effective | time until plasma level fell below the therapeutic threshold ([1]; both doses (2.5 and 1.25 mg/kg), post treatment): ≤ 24 h
